# Experimental data from PubChem BioAssay (NCI).
#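 Grown in 96-well plates, cells were treated for 48 hours with each compound at five concentrations. Insufficient inhibition: endpoint recorded as highest concentration tested. GI50 is the concentration that inhibits growth by half. TGI: total growth inhibition.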
# Key:
# Assay in all cases: NCI-60 cell line screen, 48 h
# BT-549 breast = tested on: BT-549 breast
# HCT-116 colon = tested on: HCT-116 colon
# MCF7 breast = tested on: MCF7 breast
# RXF 393 renal = tested on: RXF 393 renal
# SK-OV-3 ovarian = tested on: SK-OV-3 ovarian
# SN12C renal = tested on: SN12C renal
# SNB-19 CNS = tested on: SNB-19 CNS
# T-47D breast = tested on: T-47D breast
Structure (SMILES),GI50 (BT-549 breast) [µM],TGI (BT-549 breast) [µM],GI50 (HCT-116 colon) [µM],TGI (HCT-116 colon) [µM],GI50 (MCF7 breast) [µM],TGI (MCF7 breast) [µM],GI50 (RXF 393 renal) [µM],TGI (RXF 393 renal) [µM],GI50 (SK-OV-3 ovarian) [µM],TGI (SK-OV-3 ovarian) [µM],GI50 (SN12C renal) [µM],TGI (SN12C renal) [µM],GI50 (SNB-19 CNS) [µM],TGI (SNB-19 CNS) [µM],GI50 (T-47D breast) [µM],TGI (T-47D breast) [µM]
COc1ccc(C(=O)Nc2ncc(Cc3cccc(Cl)c3)s2)cc1OC,0.883,> 100,0.0769,> 100,0.36,> 100,1.07,6.54,3.59,> 100,1.33,> 100,0.689,> 100,0.169,> 100
COc1ccc2sc3cccc(NCCN(C)C)c3c(=O)c2c1,5.4,18.6,2.78,9.69,1.76,3.9,2.67,9.76,4.26,15,3.36,13.4,2.78,14.1,2.76,9.78
CC(=O)Nc1ccc(/C=c2\sc3nnc(CCC(=O)Nc4ccccc4Cl)n3c2=O)cc1,,,,> 100,,,,58.7,,> 100,,> 100,,> 100,,
CCOC(=O)[C@@H](C)C[C@H](Cc1ccccc1)NC(=O)c1nc([C@@H](C[C@H](C(C)C)N(C)C(=O)[C@@H](NC(=O)[C@H]2CCCCN2C)C(C)C)OC(C)=O)sc1CCOCc1ccccc1,0.0792,0.918,0.0473,1.23,0.0404,4.33,0.0657,1.53,0.0188,> 11.1,0.0706,1.55,0.0926,4.34,0.0721,> 11.1
CCOC(=O)c1ccc(Nc2sc(C(=O)c3ccc(Br)cc3)c(N)c2C#N)cc1,> 100,> 100,0.732,> 100,0.655,> 100,1.78,> 100,1.04,> 100,4.12,> 100,7.18,> 100,2.85,> 100
Cc1cccc(-c2[nH]ncc2-c2ccc3ncccc3n2)n1,> 25,> 25,7.78,> 25,8.48,> 25,5.87,12.7,> 21.9,> 25,9.64,> 25,13.2,> 25,7.07,> 23.9
CCOC(=O)c1ccccc1OC(=O)NNc1ccccc1,3.56,> 100,1.69,> 100,8.14,> 100,> 100,> 100,> 79.9,> 100,34.9,> 100,> 51.6,> 100,0.892,> 100
CC1(C)N=C(N)N=C(N)N1c1ccc(CCCCc2ccccc2)c(Cl)c1,0.161,5.19,< 0.01,1.61,0.0256,2.12,0.334,7.79,0.43,11.1,0.0521,7.02,0.0746,> 35.9,0.499,12.8
COc1cc(/C=C2\C[C@H]3[C@@H]4CC=C5C[C@@H](O)CC[C@]5(C)[C@H]4CC[C@]3(C)[C@H]2O)ccc1OCCN1CCCC1,,,8.27,24.8,16.4,> 50,9.81,23.9,,,8.48,17.9,11.8,31.3,19.9,> 50
COC(=O)C(Cc1nc2ccccc2[nH]c1=O)/C(=N\NC(C)(C)C)C(=O)Nc1c(C)cc(Br)cc1C (centres undefined),,,,37,,,,,,> 100,,> 100,,> 100,,
COC1=CC(c2ccc[nH]2)=N/C1=C\c1[nH]c(C)c(CC(=O)OCc2ccccc2)c1CCC(=O)OCc1ccccc1,0.37,2.68,0.233,1.04,0.372,5.5,0.423,2.19,0.523,3.11,,,1.72,> 100,0.256,0.922
Cc1c(O)c2ccccc2oc1=O,,> 100,,> 100,,> 100,,> 100,,,,> 100,,> 100,,> 100
N#Cc1c(NC(=O)NCc2ccccc2)sc2c1CCCC2,1.25,> 100,0.533,> 100,0.363,> 100,0.481,14.1,9.2,> 100,0.813,> 100,0.675,> 100,,
O=c1cc(-c2ccccc2)oc2ccc(OC/C(=N/O)c3ccccc3)cc12,1.46,9.01,3.11,> 50,,,2.46,14.8,1.1,16.2,2.79,33.9,2.34,35.2,,
CC[C@H]1CN2CCc3cc(OC)c(OC)cc3C2C[C@@H]1CC1NCCc2cc(OC)c(OC)cc21 (some centres undefined),,0.375,,0.0491,0.0146,1.22,,0.131,,0.292,,0.289,,,,0.0773
NCCCNc1nc2ccccc2c2c(=O)c3cc(F)cc(F)c3sc12,13,26.8,1.67,3.28,,,1.42,2.97,,,1.68,3.27,1.7,3.23,16.2,55.4
C[n+]1c(/C=C/c2c[nH]c3ccccc23)ccc2ccccc21,18.6,34.2,4.65,22.5,2.16,34.1,13.9,27.9,14.7,90.8,5.68,21,11.3,35.1,,
